Test results published in ChEMBL document CHEMBL4325913, “Norharmane as a potential chemical entity for development of anticancer drugs” (Eur J Med Chem, 2019).

How the values were obtained:
HGC-27 = test: Cytotoxicity against human HGC27 cells assessed as reduction in cell viability after 48 hrs by MTT assay; format: functional, cell-based; settings: HGC-27, 48 h
[1] = test system: Lewis lung carcinoma cell line; test: Antitumor activity against mouse LLC cells implanted in mouse assessed as tumor growth inhibition at 7.5 mg/kg, ip qd treated for 7 consecutive days starting from 24 hrs post tumor inoculum relative to control; format: functional; settings: read-out: TGI
CCRF S-180 = test: Antitumor activity against mouse S180 cells implanted in mouse assessed as tumor growth inhibition at 7.5 mg/kg, ip qd treated for 7 consecutive days starting from 24 hrs post tumor inoculum relative to control; format: functional; settings: CCRF S-180, ip, read-out: TGI
HepG2 [2] = test: Antiproliferative activity against human HepG2 cells at 5 uM after 48 hrs by MTT assay relative to control; format: functional
HepG2 [3] = test: Antiproliferative activity against human HepG2 cells at 4 uM after 48 hrs by MTT assay relative to control; format: functional
SMMC-7721 = test: Antiproliferative activity against human SMMC7721 cells after 48 hrs by MTT assay; format: functional, cell-based; settings: SMMC-7721, 48 h
[4] = target: NAD-dependent protein deacylase sirtuin-5, mitochondrial (Homo sapiens) (UniProt Q9NXA8); test: Inhibition of SIRT5 (unknown origin) at 100 uM relative to control
[5] = target: NAD-dependent protein deacylase sirtuin-5, mitochondrial (Homo sapiens) (UniProt Q9NXA8); test: Inhibition of SIRT5 (unknown origin) at 30 uM relative to control

Chain of NAD-dependent protein deacylase sirtuin-5, mitochondrial (Homo sapiens) (Q9NXA8 37-310 limits assumed): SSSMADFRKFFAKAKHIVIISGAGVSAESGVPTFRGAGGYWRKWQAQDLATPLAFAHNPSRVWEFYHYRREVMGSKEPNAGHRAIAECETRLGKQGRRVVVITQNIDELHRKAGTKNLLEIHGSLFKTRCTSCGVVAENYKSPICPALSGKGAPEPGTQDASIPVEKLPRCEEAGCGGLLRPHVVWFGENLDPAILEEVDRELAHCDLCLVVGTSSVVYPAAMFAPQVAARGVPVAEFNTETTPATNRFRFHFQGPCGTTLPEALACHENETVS

SMILES: COc1cc(-c2nc(Cn3cc(CN4C(=O)c5ccc(C)cc5C4=O)nn3)cc3c2[nH]c2ccccc23)cc(OC)c1OC
- IC50 (HGC-27): 5.44 µM
- inhibition in vivo at 7.5 mg/kg [1]: 46.9%
- inhibition in vivo at 7.5 mg/kg (CCRF S-180): 40%

SMILES: CCCN(Cc1ccc(C(=O)NO)cc1)C(=O)c1cc2c([nH]c3ccccc32)c(-c2ccc(OC)cc2)n1
- Activity (HepG2 [2]): 34.5%
- Activity (HepG2 [3]): 61.8%

SMILES: Cc1nc(C(=O)NCCCCCNC(=O)c2ccccc2O)cc2c1[nH]c1ccccc12
- IC50 (SMMC-7721): 6.97 µM

SMILES: O=C(NCCn1c2ccccc2c2ccncc21)Nc1ccc(C(=O)O)cc1
- inhibition [4]: 52%
- inhibition [5]: 35%
